Test results from patent publication US10710992B2, “Substituted pyridinones as bromodomain inhibitors” (Zenith Epigenetics Ltd., priority 2014, dated 2020).

How the values were obtained:
[1] = test system: hIL-6 mRNA; assay: Inhibition of hIL-6 mRNA transcription in LPS-stimulated U937 cells; type: cell-based; conditions: Homo sapiens, U-937; PMA-differentiated U937 cells, 1 h pretreatment, LPS 1 ug/mL, 3 h; read-out: IL-6 activity
Description: Human leukemic monocyte lymphoma U937 cells (CRL-1593.2) were plated at a density of 3.2×10^4 cells per well in a 96-well plate in 100 μL RPMI-1640 containing 10% FBS and penicillin/streptomycin, and differentiated into macrophages for 3 days in 60 ng/mL PMA ([…]) at 37° C. in 5% CO2 prior to the addition of compound. The cells were pretreated for 1 h with increasing concentrations of test compound in 0.1% DMSO prior to stimulation with 1 ug/mL lipopolysaccharide from Escherichia coli. Triplicate wells were used for each concentration. The cells were incubated at 37° C., 5% CO2 for 3 h before the cells were harvested. At time of harvest, media was removed and cells were rinsed in 200 μL PBS. Cells were harvested using the mRNA Catcher PLUS kit according to manufacturer's instructions. The eluted mRNA was then used in a one-step quantitative real-time PCR reaction using components of the RNA UltraSense™ One-Step Kit (Life Technologies) together with Applied Biosystems TaqMan® primer-probes for hIL-6 and Cyclophilin. Real-time PCR plates were run on a ViiA™ 7 real time PCR machine (Applied Biosystems), data was analyzed, normalizing the Ct values for hIL-6 to an internal control, prior to determining the fold expression of each sample, relative to the control.

[2] = test system: hApoA-1 mRNA; assay: Up-regulation of hApoA-1 mRNA transcription in Huh7 cells; type: cell-based, Human; conditions: EC170, Huh7 cells, 48 h
Description: In this example, hApoA-1 mRNA in tissue culture cells was quantitated to measure the transcriptional up-regulation of hApoA-1 when treated with a compound of the present disclosure.
Huh7 cells (2.5×10^5 per well) were plated in a 96-well plate using 100 μL DMEM per well, (Gibco DMEM supplemented with penicillin streptomycin and 10% FBS), 72 h before the addition of the compound. The cells are treated with increasing concentrations of the compound or DMSO (0.1%), and incubated at 37° C., 5% CO2 for 48 h. Spent media was removed from the Huh-7 cells and placed on ice for immediate use with the “LDH cytotoxicity assay Kit II” from Abcam. The cells remaining in the plate were rinsed with 100 μL PBS. Cells were harvested using the mRNA Catcher PLUS kit according to manufacturer's instructions. The eluted mRNA was then used in a one-step quantitative real-time PCR reaction, using components of the RNA UltraSense™ One-Step Kit (Life Technologies) together with Applied Biosystems TaqMan® primer-probes for hApoA-1 and Cyclophilin. Real-time PCR plates were run on a ViiA™ 7 real time PCR machine (Applied Biosystems), data was analyzed, normalizing the Ct values for hApoA-1 to an internal control, prior to determining the fold induction of each unknown sample, relative to the control.

[3] = test system: Human AML MV-4-11 cells; assay: Inhibition of cell proliferation in cancer cell lines (CellTiter Aqueous One); type: cell-based; conditions: Homo sapiens; MV4-11 cells, 72 h
Description: MV4-11 cells (CRL-9591) were plated at a density of 5×10^4 cells per well in 96 well flat bottom plates and treated with increasing concentrations of test compound or DMSO (0.1%) in IMDM media containing 10% FBS and penicillin/streptomycin. Triplicate wells were used for each concentration and a well containing only media was used as a control. Plates were incubated at 37° C., 5% CO2 for 72 h before adding 20 μL of the CellTiter Aqueous One Solution (Promega) to each well and incubated at 37° C., 5% CO2 for an additional 3-4 h. The absorbance was read at 490 nm in a spectrophotometer and the percentage of cell titer relative to DMSO-treated cells was calculated after correcting for background by subtracting the blank well's signal. IC50 values were calculated using the GraphPad Prism software.

[4] = biological target: T1, Brd4 bromodomain 1 (BRD4(1)) (Homo sapiens, UniProt O60885); assay: Inhibition of tetra-acetylated histone H4 binding to BET bromodomain (HTRF/FRET); conditions: His-tagged bromodomain 200 nM, tetra-acetylated histone H4 peptide, 2 h room temperature
T1 construct: made in house; host or cells: E. coli BL21(DE3)
Description: Proteins were cloned and overexpressed with a N-terminal 6× His tag, then purified by nickel affinity followed by size exclusion chromatography. Briefly, E. coli BL21(DE3) cells were transformed with a recombinant expression vector encoding N-terminally Nickel affinity tagged bromodomains from Brd2, Brd3, Brd4. Cell cultures were incubated at 37° C. with shaking to the appropriate density and induced overnight with IPTG. The supernatant of lysed cells was loaded onto Ni-IDA column for purification. Eluted protein was pooled, concentrated and further purified by size exclusion chromatography. Fractions representing monomeric protein were pooled, concentrated, aliquoted, and frozen at −80° C. for use in subsequent experiments.
Binding of tetra-acetylated histone H4 and BET bromodomains was confirmed by a Homogenous Time Resolved Fluorescence Resonance Energy Transfer (HTRF®) method. N-terminally His-tagged bromodomains (200 nM) and biotinylated tetra-acetylated historic H4 peptide (25-50 nM, Millipore) were incubated in the presence of Europium Cryptate-labeled streptavidin (Cisbio Cat. #610SAKLB) and XL665-labeled monoclonal anti-His antibody (Cisbio Cat. #61HISXLB) in a white 96 well microtiter plate (Greiner). For inhibition assays, serially diluted test compound was added to these reactions in a 0.2% final concentration of DMSO. Duplicate wells were used for each concentration tested. Final buffer concentrations were 30 mM HEPES pH 7.4, 30 mM NaCl, 0.3 mM CHAPS, 20 mM phosphate pH 7.0, 320 mM KF, 0.08% BSA. After a 2 h incubation at room temperature, fluorescence was measured at 665 and 620 nm with a SynergyH4 plate reader (Biotek). The binding inhibitory activity was shown by a decrease in 665 nm relative to […] fluorescence. IC50 values were determined from a dose response curve.

[5] = test system: c-myc in Human AML MV4-11 cells; assay: Inhibition of cMYC expression in cancer cell lines (mRNA, real-time PCR); type: cell-based; conditions: Homo sapiens, 3 h, cMYC mRNA normalized to Cyclophilin
Description: MV4-11 cells (CRL-9591) were plated at a density of 2.5×10^4 cells per well in 96 well U-bottom plates and treated with increasing concentrations of test compound or DMSO (0.1%) in IMDM media containing 10% FBS and penicillin/streptomycin, and incubated for 3 h at 37° C. Triplicate wells were used for each concentration. Cells were pelleted by centrifugation and harvested using the mRNA Catcher PLUS kit according to manufacturer's instructions. The eluted mRNA isolated was then used in a one-step quantitative real-time PCR reaction, using components of the RNA UltraSense™ One-Step Kit (Life Technologies) together with Applied Biosystems TaqMan® primer-probes for cMYC and Cyclophilin. Real-time PCR plates were run on a ViiA™ 7 real time PCR machine (Applied Biosystems), data was analyzed, normalizing the Ct values for cMYC to an internal control, prior to determining the fold expression of each sample, relative to the control.

Row | IC50 [1] [µM] | IC50 [3] [µM] | IC50 [4] [µM] | Compound | ApoA-1 activity [2] | IC50 [5] [µM]
1 | 0.3 to 3 | 3 to 30 | 0.3 to 3 | Cc1noc(C)c1-c1c[nH]c(=O)c(Nc2ccccc2)c1 [Example 1, 5-(3,5-dimethylisoxazol-4-yl)-3-(phenylamino)pyridin-2(1H)-one] | ++ (EC170 value between 0.3 and 3 μM were deemed to be very active (++)) | 3 to 30
2 | 3 to 30 | – | 3 to 30 | Cc1noc(C)c1-c1c[nH]c(=O)c(Nc2cccnc2)c1 [Example 2, 5-(3,5-dimethylisoxazol-4-yl)-3-(pyridin-3-ylamino)pyridin-2(1H)-one] | + (EC170 value between 3 and 30 μM were deemed to be active (+)) | –
